Measurements: US20060057133A1, “Topical pathogenic-tissue-destroying liquid” (priority 2002, published 2006)

Experiments:
diseased tissue = experiment: topical application of acids, enzymes and the topical liquid to skin, mucous membranes and diseased tissue; settings: for aggressiveness toward the skin and mucous membranes / tissues: topical use while selecting components of the mixture
Text: The topical liquid or aqueous composition is composed of substances such as nitric acid and enzymes, mucins and ptyalin which are combined to form an aqueous pharmaceutical composition which is applied to the infected tissues and selectively attacks the cells of the diseased tissue or tumour. This composition is applied to the tissues which are to be eliminated, in dabs which are applied using a cotton swab moistened with the topical liquid that destroys the pathogenic tissue. It is applied to the diseased tissue as necessary, until the tissue changes colour and a small clear or pink halo appears round the treated tissue. The site is then washed with clean water. When applied to the mucous membranes, washing after application of the pathogenic-tissue destroying topical liquid is not necessary. […] However, this sometimes depends on the sensitivity of the individual (only individuals who have a tendency to form keloid scars will be left with a slight sign).

[1] = system: herpes simplex virus type 1; settings: 4 mM, cited from earlier work

O=[N+]([O-])O [Nitric acid]
aggressiveness toward the skin and mucous membranes / tissues (diseased tissue): least aggressive

O=C(O)CC(O)(CC(=O)O)C(=O)O [citric acid]
coagulation of the diseased tissue (diseased tissue; topical application): did not succeed in coagulating the diseased tissue

O=C(O)C(O)CO (stereo not drawn) [glyceric acid]
synthesis of glycoproteins in normal cells ([1]; normal cells): slightly affected
production of the virus inhibited [1]: 99%

Cl [hydrochloric acid]
aggressiveness toward the skin and mucous membranes / tissues (diseased tissue): too aggressive

O=S(=O)(O)O [sulphuric, sulphuric acid]
aggressiveness toward the skin and mucous membranes / tissues (diseased tissue): too aggressive
